Patent US20050287203A1, “Formulation comprising testosteron undecanoate and castor oil” (priority 2002, published 2005)

Assay: concentration of TU attainable in castor oil solution
Type: physicochemical
Details: liquid carrier castor oil
Experimental: The choice of castor oil as the liquid carrier, in conjunction with the choice of testosterone undecanoate as the androgen, makes for a solution which can comprise about 200-250 mg of TU per ml. This amounts to approximately […] of testosterone per ml. This is a novel achievement for any orally administerable solution of testosterone in any form. The invention, in one aspect, therefore includes a pharmaceutical formulation in the form of a capsule for oral administration comprising testosterone undecanoate as the active ingredient dissolved in a pharmaceutically acceptable liquid carrier in a concentration of 200-250 mg/ml.

CCCCCCCCCCC(=O)O[C@H]1CC[C@H]2[C@@H]3CCC4=CC(=O)CC[C@]4(C)[C@H]3CC[C@]12C [testosterone undecanoate]
amount of TU the solution in castor oil can comprise: 200-250 mg of TU per ml
